Measured values reported in paper PMC4594035, “Xenopus borealis as an alternative source of oocytes for biophysical and pharmacological studies of neuronal ion channels” (Scientific Reports, 2015).
Read-outs that look alike come from different tables or passages of the source. Bridge positions count the residues as written; N and C are the ends. Ends that are not written are not given here.

Experiments:
[1] = biological target: T1, rat ASIC3 (Rattus norvegicus, UniProt O35240); experiment: Inhibition of rat ASIC3 by APETx2, two-electrode voltage-clamp in Xenopus oocytes; assay type: cell-based; conditions: ND96 with 0.1% fatty acid free-bovine serum albumin, 18–21 °C, mean, n = 9, Supplementary Table S3, read-out: IC50 (half-maximal response)
T1 construct: expressed in transfected cells; host or cells: Xenopus laevis and Xenopus borealis oocytes (cRNA injection)
T1 sequence (O35240 1-533): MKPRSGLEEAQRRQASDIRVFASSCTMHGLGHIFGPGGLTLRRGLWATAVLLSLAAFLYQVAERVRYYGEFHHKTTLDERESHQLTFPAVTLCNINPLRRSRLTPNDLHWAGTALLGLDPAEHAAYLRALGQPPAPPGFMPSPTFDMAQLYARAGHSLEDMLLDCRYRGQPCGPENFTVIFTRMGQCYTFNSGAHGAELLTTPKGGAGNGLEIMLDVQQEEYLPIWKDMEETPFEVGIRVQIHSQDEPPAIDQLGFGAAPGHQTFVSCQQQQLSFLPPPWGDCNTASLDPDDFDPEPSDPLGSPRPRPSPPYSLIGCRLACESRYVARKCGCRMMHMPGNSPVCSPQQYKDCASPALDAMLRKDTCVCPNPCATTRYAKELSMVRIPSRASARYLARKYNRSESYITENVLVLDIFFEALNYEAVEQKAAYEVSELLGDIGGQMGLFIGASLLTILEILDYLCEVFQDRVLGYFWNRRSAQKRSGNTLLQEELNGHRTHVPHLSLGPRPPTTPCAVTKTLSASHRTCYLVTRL
Procedure: (§1) X. laevis (Xenopus Express) and X. borealis (Nasco) oocytes were surgically removed from anaesthetised (Tricaine methanesulfonate, MS-222) female frogs and treated with collagenase (1 mg/ml; Sigma type I) for defolliculation. cRNAs were synthesised using an mMessage mMachine cRNA transcription kit (Ambion Inc., Austin, TX, USA) and injected into stage V–VI oocytes at 4–200 ng per cell. Oocytes were stored at 17 °C in ND96 solution (96 mM NaCl, 1.8 mM CaCl2, 2 mM KCl, 2 mM MgCl2, 5 mM HEPES, pH 7.4) supplemented with 2.5 mM pyruvic acid, 50 μg/mL gentamicin, and either 2.5% horse serum or 0.5 mM theophylline. Membrane currents were recorded 2–10 days after injection under voltage-clamp (Axoclamp 900A or Geneclamp 500B, Molecular Devices, CA, USA) using two standard glass microelectrodes of 0.5–2 MΩ resistance when filled with 3 M KCl solution. Data acquisition and analysis were performed using pCLAMP software (Version 9.2 or 10, Molecular Devices, Sunnyvale, CA, USA). All experiments were performed at room temperature (18–21 °C) in ND96 solution. Experiments containing peptides were performed in ND96 solution containing 0.1% fatty acid free-bovine serum albumin (Sigma). […]
(§2) All data were analysed using Prism 6.0 (GraphPad Software, San Diego, CA, USA). […] For both t-tests, it was assumed data was sampled from Gaussian populations, and P values were calculated from two-tailed tests. […]

[2] = system: NaV1.2; experiment: Inhibition of NaV1.2 by ProTx-I, two-electrode voltage-clamp in Xenopus oocytes; assay type: cell-based; conditions: 300 nM ProTx-I; depolarisation to –15 mV from holding potential −80 mV; n = 8–9; Fig. 3f; P > 0.05
Procedure: as §1, §2

[3] = system: NaV1.5; experiment: Inhibition of NaV1.5 by ProTx-I, two-electrode voltage-clamp in Xenopus oocytes; assay type: cell-based; conditions: 300 nM ProTx-I; depolarisation to –15 mV from holding potential −80 mV; n = 8–9; Fig. 3f; P > 0.05
Procedure: as §1, §2

[4] = system: NaV1.7; experiment: Inhibition of NaV1.7 by ProTx-I, two-electrode voltage-clamp in Xenopus oocytes; assay type: cell-based; conditions: 300 nM ProTx-I; depolarisation to –15 mV from holding potential −80 mV; n = 8–9; Fig. 3f; P > 0.05
Procedure: as §1, §2

[5] = system: NaV channel; conditions: cited from earlier work
Procedure: Two-electrode voltage-clamp electrophysiology recordings were performed to compare the properties of a panel of KV and voltage-gated sodium (NaV) channels heterologously expressed in X. laevis and X. borealis oocytes. […] Conductance-voltage relationship curves obtained for NaV1.2 (Fig. 3c), NaV1.5 (Fig. 3d), and NaV1.7 (Fig. 3e) overlap ...

[6] = system: α1N203C GlyR; conditions: for ΔFmax (maximal fluorescence change) / ΔImax (maximal current change) / Slope, ΔF / Slope, ΔI / EC50: MTS-TAMRA labelled, mean ± s.e.m.; for Slope, ΔF / Slope, ΔI / EC50: n = 4–6; for EC50: −40 mV
From the text: (§3) This technique permits the real time monitoring of conformational changes in ion channel domains distant from the gate. It involves introducing a cysteine into the ion channel domain of interest and covalently labelling it with a sulfhydryl-reactive rhodamine derivative such as MTSR. As the quantum efficiency of the rhodamine depends on the hydrophobicity of its environment, protein conformational changes occurring in the immediate vicinity of the attached fluorophore are likely to change the hydrophobicity of its environment and thus produce a fluorescence change. […] Conformational changes at the channel gate are monitored simultaneously using two-electrode voltage-clamp. For these recordings, DNA encoding the α1 GlyR subunit was subcloned into pGEMHE, a plasmid vector optimised for oocyte expression. […] Both sites have previously been characterised extensively using voltage-clamp fluorometry. A C41A mutation was incorporated into the α1 GlyR to eliminate the sole non-crosslinked extracellular sulfhydryl group. Site directed mutagenesis was performed using the QuikChange mutagenesis kit (Stratagene).
(§4) On the day of recording, oocytes were transferred into ND96 and stored on ice. For a subset of experiments, a modified version of the previously described approach[39] for vitelline membrane disruption and removal was performed by incubating oocytes in ND96 containing 0.5 mg/ml protease (protease type VIII from Bacillus licheniformis, Sigma-Aldrich) for 1–1.5 min before labelling. Following this, a sequential wash step was performed by transferring oocytes into fresh ND96 solution five consecutive times. To label with either MTSR or MTS-TAMRA (Toronto Research Chemicals), oocytes were transferred into labelling solution containing 10 μM of either compound in ND96 for 25 s. The oocytes were then washed and stored in ND96 for up to 6 h before recording. All labelling steps were performed on ice.
(§5) We recently described the experimental set up in detail. Briefly, we employed an inverted microscope (Eclipse TE300, Nikon Instruments) equipped with a high-Q tetramethylrhodamine isothiocyanate filter set (Chroma Technology), a Plan Fluor X40 objective (Nikon Instruments) and an H7360-03 photomultiplier detection system (Hamamatsu Photonics) attached to the side port of the microscope. An excitation filter wheel including a shutter and emission filter wheel were controlled through a Lambda 10-2 unit (Sutter Instruments). A Lambda LS 175 W xenon arc lamp served as a light source and was coupled to the microscope via a liquid light guide (Sutter Instruments). The design of the custom-made recording chamber has been described. An automated perfusion system operated by a ValveBank-8 valve controller (AutoMate Scientific) was used for perfusion of the recording chamber. Electrodes were moved by automated ROE-200 micromanipulators coupled to an MPC-200 controller (Sutter Instruments). Cells were voltage-clamped at −40 mV and currents recorded using a Gene Clamp 500B amplifier (Molecular Devices). Current and fluorescence traces were acquired at 200 Hz via a Digidata 1322A interface and pCLAMP 9.2 software.
(§6) All data were analysed using Prism 6.0 (GraphPad Software, San Diego, CA, USA). The Hill equation was fitted to normalised concentration-response curves to obtain the half-maximal response (EC50, IC50, or pH50) and Hill coefficient (nH). Voltage-dependent activation curves were fit with the Boltzmann equation to obtain the V0.5 (the voltage corresponding to half-maximal effect). Data are shown as mean and 95% confidence intervals, and n represents the number of oocytes for a given experiment (taken from at least three different frogs). Most equivalence testing comparing X. laevis and X. borealis oocytes was performed using an unpaired Student’s t-test with 95% confidence intervals.

[7] = system: α1R271C GlyR; conditions: MTSR labelled, mean ± s.e.m.; for Slope, ΔF / Slope, ΔI / EC50: n = 4–6; for EC50: −40 mV
From the text: as §3, §4, §5, §6

[8] = biological target: α1β2γ2L GABAAR (Homo sapiens, UniProt P14867+P47870); experiment: GABA activation of α1β2γ2L GABAAR, two-electrode voltage-clamp in Xenopus oocytes; assay type: cell-based; conditions: n = 9–10; for Slope (Hill coefficient): mean
Procedure: (§7) X. laevis (Xenopus Express) and X. borealis (Nasco) oocytes were surgically removed from anaesthetised (Tricaine methanesulfonate, MS-222) female frogs and treated with collagenase (1 mg/ml; Sigma type I) for defolliculation. cRNAs were synthesised using an mMessage mMachine cRNA transcription kit (Ambion Inc., Austin, TX, USA) and injected into stage V–VI oocytes at 4–200 ng per cell. Oocytes were stored at 17 °C in ND96 solution (96 mM NaCl, 1.8 mM CaCl2, 2 mM KCl, 2 mM MgCl2, 5 mM HEPES, pH 7.4) supplemented with 2.5 mM pyruvic acid, 50 μg/mL gentamicin, and either 2.5% horse serum or 0.5 mM theophylline. Membrane currents were recorded 2–10 days after injection under voltage-clamp (Axoclamp 900A or Geneclamp 500B, Molecular Devices, CA, USA) using two standard glass microelectrodes of 0.5–2 MΩ resistance when filled with 3 M KCl solution. Data acquisition and analysis were performed using pCLAMP software (Version 9.2 or 10, Molecular Devices, Sunnyvale, CA, USA). All experiments were performed at room temperature (18–21 °C) in ND96 solution. Experiments containing peptides were performed in ND96 solution containing 0.1% fatty acid free-bovine serum albumin (Sigma). Recordings were performed as previously described for ASICs[30][31], GABAAR[32][33], GlyR[34], KV[6][8][35], and NaV[36] channels.
as §6, with “[…] For both t-tests, it was assumed data was sampled from Gaussian populations,” for “Most equivalence testing comparing X. laevis”, “P values were calculated from two-tailed tests. […]” for “X. borealis oocytes was performed using an unpaired Student’s t-test with 95% confidence intervals.”

[9] = biological target: α5β2γ2L GABAAR (Homo sapiens, UniProt P31644+P47870); experiment: GABA activation of α5β2γ2L GABAAR, two-electrode voltage-clamp in Xenopus oocytes; assay type: cell-based; conditions: n = 9–10; for Slope (Hill coefficient): mean
Procedure: as §7
as §6, with “[…] For both t-tests, it was assumed data was sampled from Gaussian populations,” for “Most equivalence testing comparing X. laevis”, “P values were calculated from two-tailed tests. […]” for “X. borealis oocytes was performed using an unpaired Student’s t-test with 95% confidence intervals.”

[10] = biological target: α5β3γ2L GABAAR (Homo sapiens, UniProt P28472+P31644); experiment: GABA activation of α5β3γ2L GABAAR, two-electrode voltage-clamp in Xenopus oocytes; assay type: cell-based; conditions: n = 9–10; for Slope (Hill coefficient): mean
Procedure: as §7
as §6, with “[…] For both t-tests, it was assumed data was sampled from Gaussian populations,” for “Most equivalence testing comparing X. laevis”, “P values were calculated from two-tailed tests. […]” for “X. borealis oocytes was performed using an unpaired Student’s t-test with 95% confidence intervals.”

[11] = read-out: EC50, ΔF (glycine-induced fluorescence change), X. laevis oocytes
[12] = read-out: EC50, ΔI (glycine-induced current), X. borealis oocytes
[13] = read-out: EC50, ΔI (glycine-induced current), X. laevis oocytes
[14] = X. laevis compared with X. borealis oocytes

Sequence of α1β2γ2L GABAAR (P14867 28-456): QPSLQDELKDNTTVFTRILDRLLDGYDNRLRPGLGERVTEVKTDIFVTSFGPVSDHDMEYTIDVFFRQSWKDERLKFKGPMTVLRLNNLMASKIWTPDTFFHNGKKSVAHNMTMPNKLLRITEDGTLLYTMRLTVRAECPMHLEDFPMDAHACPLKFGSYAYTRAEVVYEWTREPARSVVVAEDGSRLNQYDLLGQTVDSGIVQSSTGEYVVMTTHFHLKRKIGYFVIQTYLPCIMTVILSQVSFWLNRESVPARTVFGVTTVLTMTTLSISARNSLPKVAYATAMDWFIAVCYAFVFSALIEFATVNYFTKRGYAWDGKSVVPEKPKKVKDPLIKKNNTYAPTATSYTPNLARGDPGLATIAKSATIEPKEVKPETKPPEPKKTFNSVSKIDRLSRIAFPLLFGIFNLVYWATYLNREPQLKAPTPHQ
Sequence of α1β2γ2L GABAAR (P47870 26-512): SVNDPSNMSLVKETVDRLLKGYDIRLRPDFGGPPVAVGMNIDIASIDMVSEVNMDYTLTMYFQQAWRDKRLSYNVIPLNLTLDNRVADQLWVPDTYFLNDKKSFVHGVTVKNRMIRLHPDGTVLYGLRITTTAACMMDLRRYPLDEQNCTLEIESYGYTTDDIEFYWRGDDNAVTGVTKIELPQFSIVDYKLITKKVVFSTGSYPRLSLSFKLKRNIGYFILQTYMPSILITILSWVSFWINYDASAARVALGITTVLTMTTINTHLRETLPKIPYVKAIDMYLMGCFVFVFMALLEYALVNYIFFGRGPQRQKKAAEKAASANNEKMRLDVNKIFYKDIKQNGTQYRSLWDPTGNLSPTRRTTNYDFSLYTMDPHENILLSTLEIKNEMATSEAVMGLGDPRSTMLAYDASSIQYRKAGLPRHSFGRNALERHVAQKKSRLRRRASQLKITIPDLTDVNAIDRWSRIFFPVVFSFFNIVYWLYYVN
Sequence of α1β2γ2L GABAAR (P18507 40-475 partner): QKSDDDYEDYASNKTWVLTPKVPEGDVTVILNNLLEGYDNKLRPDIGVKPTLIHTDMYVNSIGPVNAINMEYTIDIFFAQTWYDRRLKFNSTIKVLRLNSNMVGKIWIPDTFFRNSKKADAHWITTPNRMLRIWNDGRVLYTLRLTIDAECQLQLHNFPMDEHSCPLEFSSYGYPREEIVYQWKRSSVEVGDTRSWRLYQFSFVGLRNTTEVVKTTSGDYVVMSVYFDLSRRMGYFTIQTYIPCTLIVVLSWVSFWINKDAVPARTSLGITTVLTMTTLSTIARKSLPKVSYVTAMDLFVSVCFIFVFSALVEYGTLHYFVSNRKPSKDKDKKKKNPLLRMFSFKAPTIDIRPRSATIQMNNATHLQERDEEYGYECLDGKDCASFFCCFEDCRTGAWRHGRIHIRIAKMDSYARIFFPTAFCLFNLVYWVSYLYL
Sequence of α5β2γ2L GABAAR (P31644 32-462): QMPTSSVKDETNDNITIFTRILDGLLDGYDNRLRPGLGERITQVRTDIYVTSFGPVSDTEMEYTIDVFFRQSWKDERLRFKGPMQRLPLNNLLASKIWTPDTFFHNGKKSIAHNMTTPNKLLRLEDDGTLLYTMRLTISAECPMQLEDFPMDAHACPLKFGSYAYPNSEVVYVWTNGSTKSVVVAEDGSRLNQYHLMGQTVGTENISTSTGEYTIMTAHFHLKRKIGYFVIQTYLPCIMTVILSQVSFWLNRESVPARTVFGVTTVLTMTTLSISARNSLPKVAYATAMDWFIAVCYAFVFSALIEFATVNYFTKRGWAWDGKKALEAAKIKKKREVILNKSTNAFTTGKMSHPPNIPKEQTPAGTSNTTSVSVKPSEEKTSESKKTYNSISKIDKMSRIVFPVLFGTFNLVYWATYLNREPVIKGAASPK
Sequence of α5β2γ2L GABAAR (P47870 26-512): as the sequence (P47870 26-512) above
Sequence of α5β2γ2L GABAAR (P18507 40-475 partner): as the sequence (P18507 40-475 partner) above
Sequence of α5β3γ2L GABAAR (P31644 32-462): as the sequence (P31644 32-462) above
Sequence of α5β3γ2L GABAAR (P28472 26-473): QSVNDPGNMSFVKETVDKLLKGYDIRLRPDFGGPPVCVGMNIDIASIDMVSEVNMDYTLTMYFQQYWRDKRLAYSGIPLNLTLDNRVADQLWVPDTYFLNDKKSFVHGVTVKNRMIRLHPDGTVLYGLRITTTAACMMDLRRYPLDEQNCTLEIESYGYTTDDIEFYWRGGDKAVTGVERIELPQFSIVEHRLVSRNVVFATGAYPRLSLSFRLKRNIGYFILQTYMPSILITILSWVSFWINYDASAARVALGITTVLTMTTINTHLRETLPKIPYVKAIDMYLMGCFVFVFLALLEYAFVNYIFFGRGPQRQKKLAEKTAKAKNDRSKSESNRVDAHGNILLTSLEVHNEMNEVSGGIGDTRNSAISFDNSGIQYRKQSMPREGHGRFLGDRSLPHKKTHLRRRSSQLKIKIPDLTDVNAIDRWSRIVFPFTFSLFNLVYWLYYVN
Sequence of α5β3γ2L GABAAR (P18507 40-475 partner): as the sequence (P18507 40-475 partner) above

## GTACSCGNSKGIYWFYRPSCPTDRGYTGSCRYFLGTCCTPAD (disulfide 4-37, 6-30, 20-38) [APETx2]
[1]; X. borealis oocytes
  IC50: 0.0511 µM
[1]; X. laevis oocytes
  IC50: 0.0647 µM

## ProTx-I
[2]
  Inhibition by ProTx-I, X. laevis vs X. borealis: Comparable levels of inhibition between species
[3]
  Inhibition by ProTx-I, X. laevis vs X. borealis: Comparable levels of inhibition between species
[4]
  Inhibition by ProTx-I, X. laevis vs X. borealis: Comparable levels of inhibition between species
[5]
  NaV channel inhibition: potent and non-selective NaV channel inhibitor

## NCC(=O)O [glycine]
[6]; 10 μM glycine, protease (type VIII, 0.5 mg/ml) 1 min before labelling, n = 7, Fig. 5b
  ΔF after 1 min protease treatment vs untreated oocytes: A significant increase in ΔF was obtained after 1 min treatment with protease for X. borealis, but not X. laevis, oocytes
[6]; X. borealis oocytes
  ΔFmax (maximal fluorescence change): 27.8 ± 4.4%
  ΔImax (maximal current change): 8.0 ± 0.8 µA
  Slope, ΔF: 1.8 ± 0.1
  Slope, ΔI: 1.5 ± 0.1
[6]; X. laevis oocytes
  ΔFmax (maximal fluorescence change): 25.9 ± 4.2%
  ΔImax (maximal current change): 8.4 ± 0.2 µA
  Slope, ΔF: 1.4 ± 0.2
  Slope, ΔI: 1.9 ± 0.2
[6]; [11]
  EC50: 548 ± 25 µM
[6]; [12]
  EC50: 136 ± 8.7 µM
[6]; [13]
  EC50: 145 ± 10 µM
[7]; X. borealis oocytes
  ΔFmax (maximal fluorescence change): 9.0 ± 2.2%
  ΔImax (maximal current change): 2.7 ± 0.5 µA
  Slope, ΔF: 1.0 ± 0.1
  Slope, ΔI: 2.0 ± 0.2
[7]; X. laevis oocytes
  ΔFmax (maximal fluorescence change): 12.2 ± 2.2%
  ΔImax (maximal current change): 3.4 ± 1.7 µA
  Slope, ΔF: 1.3 ± 0.2
  Slope, ΔI: 1.4 ± 0.2
[7]; read-out: EC50, ΔF (glycine-induced fluorescence change), X. borealis oocytes
  EC50: 1010 ± 98 µM
[7]; [11]
  EC50: 872 ± 58 µM
[7]; [12]
  EC50: 1700 ± 104 µM
[7]; [13]
  EC50: 1930 ± 175 µM

## NCCCC(=O)O [GABA, γ-aminobutyric acid]
[8]; X. borealis oocytes
  Slope (Hill coefficient): 0.60
[8]; [14]
  Concentration-effect curves for GABA activation, X. laevis vs X. borealis: no difference in the concentration-effect curves
[8]; X. laevis oocytes
  Slope (Hill coefficient): 0.56
[9]; X. borealis oocytes
  Slope (Hill coefficient): 0.74
[9]; [14]
  Concentration-effect curves for GABA activation, X. laevis vs X. borealis: no difference in the concentration-effect curves
[9]; X. laevis oocytes
  Slope (Hill coefficient): 0.49
[10]; X. borealis oocytes
  Slope (Hill coefficient): 0.93
[10]; [14]
  Concentration-effect curves for GABA activation, X. laevis vs X. borealis: no difference in the concentration-effect curves
[10]; X. laevis oocytes
  Slope (Hill coefficient): 0.75
